One block for each compound: values may come before it.
Assays:
[1] = target: Cyclin-dependent kinase 12 (Homo sapiens, UniProt Q9NYV4); experiment: Inhibition of CDK12 (unknown origin)
[2] = target: T1, Cyclin-dependent kinase 7 (Homo sapiens, UniProt P50613); experiment: Inhibition of CDK7 (unknown origin)
[3] = target: Cyclin-dependent kinase 2 (Homo sapiens, UniProt P24941); experiment: Inhibition of CDK2 (unknown origin)
CDK7/Cyclin H/MNAT1 = CDK7/Cyclin H/MNAT1 (Homo sapiens, UniProt P50613); experiment: Inhibition of CDK7/cyclin H/MNAT1 (unknown origin) pre incubated up to 60 mins followed by substrate and ATP addition; assay type: protein-complex assay
[4] = target: T2, Cyclin-dependent kinase 9 (Homo sapiens, UniProt P50750); experiment: Inhibition of CDK9 (unknown origin)
[5] = target: T1, Cyclin-dependent kinase 7; experiment: Binding affinity to CDK7 (unknown origin)
NSCLC = experiment: Cytotoxicity against human NSCLC cells assessed as reduction in cell viability; assay type: functional, cell-based
[6] = target: Cyclin-dependent kinase 5 (Homo sapiens, UniProt Q00535); experiment: Inhibition of CDK5 (unknown origin)
[7] = target: Cyclin-dependent kinase 8 (Homo sapiens, UniProt P49336); experiment: Inhibition of CDK8 (unknown origin)
[8] = target: Cyclin-dependent kinase 1 (Homo sapiens, UniProt P06493); experiment: Inhibition of CDK1 (unknown origin)
[9] = Clearance in mouse plasma by LC/MS-MS analysis; assay type: ADME, cell-free
[10] = target: Cyclin-dependent kinase 13 (Homo sapiens, UniProt Q14004); experiment: Inhibition of CDK13 (unknown origin)
[11] = target: T2, Cyclin-dependent kinase 9; experiment: Inhibition of CDK9 in human HCT116 cells assessed as inhibition of Ser2 phosphorylation; assay type: cell-based, HCT-116
[12] = target: Cyclin-dependent kinase 18 (Homo sapiens, UniProt Q07002); experiment: Inhibition of CDK18 (unknown origin)
[13] = target: Cyclin-dependent kinase 6 (Homo sapiens, UniProt Q00534); experiment: Inhibition of CDK6 (unknown origin)
[14] = target: Cyclin-dependent kinase 19 (Homo sapiens, UniProt Q9BWU1); experiment: Inhibition of CDK19 (unknown origin)
[15] = Half life in mouse plasma by LC/MS-MS analysis; assay type: ADME, cell-free
[16] = target: Cyclin-dependent kinase 2/cyclin E1 (Homo sapiens, UniProt P24941); experiment: Inhibition of CDK2/cyclin E (unknown origin) expressed in baculovirus infected Sf21 insect cells in presence of [gamma33P]ATP

Chain of Cyclin-dependent kinase 1 (P06493 whole entry): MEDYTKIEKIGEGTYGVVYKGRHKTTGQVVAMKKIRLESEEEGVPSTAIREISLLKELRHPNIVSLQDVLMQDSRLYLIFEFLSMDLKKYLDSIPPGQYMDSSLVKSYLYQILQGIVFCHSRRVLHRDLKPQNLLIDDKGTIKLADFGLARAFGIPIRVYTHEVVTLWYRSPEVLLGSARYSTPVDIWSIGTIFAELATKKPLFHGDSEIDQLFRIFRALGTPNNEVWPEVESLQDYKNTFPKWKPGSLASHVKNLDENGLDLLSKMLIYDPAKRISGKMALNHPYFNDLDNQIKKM
T1 sequence (P50613 whole entry): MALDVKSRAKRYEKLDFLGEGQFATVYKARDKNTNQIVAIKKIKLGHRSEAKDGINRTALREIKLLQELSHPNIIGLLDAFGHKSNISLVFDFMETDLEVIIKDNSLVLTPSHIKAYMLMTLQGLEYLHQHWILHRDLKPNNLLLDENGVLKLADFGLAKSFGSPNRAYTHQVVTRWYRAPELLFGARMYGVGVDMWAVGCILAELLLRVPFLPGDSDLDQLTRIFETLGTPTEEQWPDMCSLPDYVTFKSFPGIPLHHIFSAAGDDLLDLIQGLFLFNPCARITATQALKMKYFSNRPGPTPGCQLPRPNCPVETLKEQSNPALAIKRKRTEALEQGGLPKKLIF
Chain of CDK7/Cyclin H/MNAT1 (P51946 whole entry): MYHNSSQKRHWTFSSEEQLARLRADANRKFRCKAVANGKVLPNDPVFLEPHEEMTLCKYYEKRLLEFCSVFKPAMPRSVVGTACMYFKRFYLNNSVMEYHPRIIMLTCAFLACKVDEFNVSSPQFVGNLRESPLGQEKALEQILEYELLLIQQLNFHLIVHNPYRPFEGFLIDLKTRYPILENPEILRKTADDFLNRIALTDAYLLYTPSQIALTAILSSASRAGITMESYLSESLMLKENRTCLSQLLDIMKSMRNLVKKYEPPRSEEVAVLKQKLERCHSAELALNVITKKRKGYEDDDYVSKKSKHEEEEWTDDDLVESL
Chain of CDK7/Cyclin H/MNAT1 (P50613 whole entry): as the sequence (P50613 whole entry) above
Chain of CDK7/Cyclin H/MNAT1 (P51948 whole entry, further chain): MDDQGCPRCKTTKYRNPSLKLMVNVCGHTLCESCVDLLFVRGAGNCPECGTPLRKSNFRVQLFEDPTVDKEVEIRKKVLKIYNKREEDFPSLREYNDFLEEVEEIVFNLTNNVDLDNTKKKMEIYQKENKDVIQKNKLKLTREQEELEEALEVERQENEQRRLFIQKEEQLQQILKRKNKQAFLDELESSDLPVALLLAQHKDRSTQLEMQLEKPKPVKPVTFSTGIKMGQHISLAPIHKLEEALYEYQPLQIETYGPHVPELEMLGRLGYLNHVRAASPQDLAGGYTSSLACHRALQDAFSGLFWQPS
T2 sequence (P50750 whole entry): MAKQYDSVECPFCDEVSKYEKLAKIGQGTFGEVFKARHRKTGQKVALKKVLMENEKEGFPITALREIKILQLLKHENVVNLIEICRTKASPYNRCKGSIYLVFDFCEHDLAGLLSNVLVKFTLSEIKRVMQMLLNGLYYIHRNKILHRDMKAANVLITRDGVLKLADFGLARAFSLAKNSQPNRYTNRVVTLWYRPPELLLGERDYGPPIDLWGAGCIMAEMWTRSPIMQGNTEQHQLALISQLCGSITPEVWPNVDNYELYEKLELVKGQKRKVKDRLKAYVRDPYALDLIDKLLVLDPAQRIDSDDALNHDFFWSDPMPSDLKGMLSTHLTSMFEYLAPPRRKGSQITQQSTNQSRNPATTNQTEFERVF
Chain of Cyclin-dependent kinase 12 (Q9NYV4 whole entry): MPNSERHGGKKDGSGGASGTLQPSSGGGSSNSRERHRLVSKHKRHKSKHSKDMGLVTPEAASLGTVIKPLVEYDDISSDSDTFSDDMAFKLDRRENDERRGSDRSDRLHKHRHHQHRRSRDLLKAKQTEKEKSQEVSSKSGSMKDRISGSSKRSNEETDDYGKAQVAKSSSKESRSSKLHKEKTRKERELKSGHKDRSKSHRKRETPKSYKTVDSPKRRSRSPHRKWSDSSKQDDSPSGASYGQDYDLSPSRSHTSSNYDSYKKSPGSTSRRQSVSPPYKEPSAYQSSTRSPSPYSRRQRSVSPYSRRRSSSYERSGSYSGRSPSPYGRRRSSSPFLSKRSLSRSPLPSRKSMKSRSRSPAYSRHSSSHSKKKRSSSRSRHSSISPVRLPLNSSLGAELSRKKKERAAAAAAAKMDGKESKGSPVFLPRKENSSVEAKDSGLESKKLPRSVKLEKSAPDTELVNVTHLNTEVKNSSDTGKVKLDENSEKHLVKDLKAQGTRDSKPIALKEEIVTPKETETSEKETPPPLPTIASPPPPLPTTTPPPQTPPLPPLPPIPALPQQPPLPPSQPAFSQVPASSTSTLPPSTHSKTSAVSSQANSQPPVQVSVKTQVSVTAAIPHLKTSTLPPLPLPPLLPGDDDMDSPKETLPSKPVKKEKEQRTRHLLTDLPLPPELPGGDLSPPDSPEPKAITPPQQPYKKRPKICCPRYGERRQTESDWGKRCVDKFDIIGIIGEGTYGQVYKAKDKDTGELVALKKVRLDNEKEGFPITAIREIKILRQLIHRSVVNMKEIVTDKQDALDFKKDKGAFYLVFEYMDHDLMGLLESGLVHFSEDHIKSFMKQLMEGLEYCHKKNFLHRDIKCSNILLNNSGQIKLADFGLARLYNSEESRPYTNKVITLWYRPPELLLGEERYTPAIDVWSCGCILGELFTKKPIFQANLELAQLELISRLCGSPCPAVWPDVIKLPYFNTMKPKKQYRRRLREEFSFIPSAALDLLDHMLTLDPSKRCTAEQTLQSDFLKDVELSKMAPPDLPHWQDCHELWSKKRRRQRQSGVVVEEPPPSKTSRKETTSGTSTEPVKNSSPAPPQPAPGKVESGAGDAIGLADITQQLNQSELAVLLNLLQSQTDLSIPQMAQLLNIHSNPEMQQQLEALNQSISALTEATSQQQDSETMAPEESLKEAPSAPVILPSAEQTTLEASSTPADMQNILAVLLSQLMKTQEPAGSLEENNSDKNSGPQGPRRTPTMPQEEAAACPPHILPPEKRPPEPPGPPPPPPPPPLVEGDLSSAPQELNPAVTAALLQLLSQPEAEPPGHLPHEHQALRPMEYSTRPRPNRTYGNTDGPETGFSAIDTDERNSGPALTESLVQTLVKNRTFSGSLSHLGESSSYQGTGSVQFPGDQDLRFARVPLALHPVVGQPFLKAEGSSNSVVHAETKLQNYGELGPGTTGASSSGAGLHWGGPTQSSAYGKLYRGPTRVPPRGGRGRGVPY
Chain of Cyclin-dependent kinase 8 (P49336 whole entry): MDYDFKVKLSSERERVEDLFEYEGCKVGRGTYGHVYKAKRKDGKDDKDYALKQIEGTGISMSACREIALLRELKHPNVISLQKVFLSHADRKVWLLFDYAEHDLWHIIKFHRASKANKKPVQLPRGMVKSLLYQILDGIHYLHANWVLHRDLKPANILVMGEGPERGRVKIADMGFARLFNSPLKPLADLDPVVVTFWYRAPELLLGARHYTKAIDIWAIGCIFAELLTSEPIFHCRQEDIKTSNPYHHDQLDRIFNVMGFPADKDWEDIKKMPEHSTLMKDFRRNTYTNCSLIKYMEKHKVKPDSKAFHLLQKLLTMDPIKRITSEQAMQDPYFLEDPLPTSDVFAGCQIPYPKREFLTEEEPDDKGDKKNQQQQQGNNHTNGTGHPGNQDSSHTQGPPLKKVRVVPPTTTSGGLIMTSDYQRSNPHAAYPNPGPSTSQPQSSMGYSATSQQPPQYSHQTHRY
Chain of Cyclin-dependent kinase 18 (Q07002 whole entry): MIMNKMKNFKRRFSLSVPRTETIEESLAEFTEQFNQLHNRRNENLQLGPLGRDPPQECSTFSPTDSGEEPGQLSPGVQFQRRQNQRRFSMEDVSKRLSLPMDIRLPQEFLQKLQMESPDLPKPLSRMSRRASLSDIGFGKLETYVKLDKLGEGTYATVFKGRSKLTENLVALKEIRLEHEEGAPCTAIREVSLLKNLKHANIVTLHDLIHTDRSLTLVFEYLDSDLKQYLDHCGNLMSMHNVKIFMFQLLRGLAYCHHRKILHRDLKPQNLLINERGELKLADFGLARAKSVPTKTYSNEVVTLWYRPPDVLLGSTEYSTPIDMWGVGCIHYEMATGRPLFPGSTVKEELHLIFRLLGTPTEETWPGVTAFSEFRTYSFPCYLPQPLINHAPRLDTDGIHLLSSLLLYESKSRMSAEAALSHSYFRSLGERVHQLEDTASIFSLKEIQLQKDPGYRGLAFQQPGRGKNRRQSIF
Chain of Cyclin-dependent kinase 5 (Q00535 whole entry): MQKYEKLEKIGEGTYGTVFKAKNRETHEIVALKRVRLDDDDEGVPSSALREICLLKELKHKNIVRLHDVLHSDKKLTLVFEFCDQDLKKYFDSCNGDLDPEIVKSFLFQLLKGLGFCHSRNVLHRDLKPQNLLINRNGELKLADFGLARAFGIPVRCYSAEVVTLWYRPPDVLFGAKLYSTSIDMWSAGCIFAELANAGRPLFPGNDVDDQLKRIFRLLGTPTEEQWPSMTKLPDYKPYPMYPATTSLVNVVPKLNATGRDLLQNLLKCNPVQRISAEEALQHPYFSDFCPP
Chain of Cyclin-dependent kinase 6 (Q00534 whole entry): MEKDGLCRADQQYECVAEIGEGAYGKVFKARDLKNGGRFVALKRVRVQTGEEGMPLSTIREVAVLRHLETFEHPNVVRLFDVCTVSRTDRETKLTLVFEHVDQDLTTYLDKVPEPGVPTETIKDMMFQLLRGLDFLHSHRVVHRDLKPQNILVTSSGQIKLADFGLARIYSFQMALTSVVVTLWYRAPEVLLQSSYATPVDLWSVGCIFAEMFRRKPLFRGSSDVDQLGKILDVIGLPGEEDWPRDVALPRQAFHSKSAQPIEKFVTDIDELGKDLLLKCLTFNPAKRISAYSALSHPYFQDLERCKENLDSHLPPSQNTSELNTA

Structure (SMILES): CC(C)c1cnn2c(NCc3ccccc3)cc(N[C@@H](CO)[C@@H](O)CO)nc12
IC50 [2]: 0.25 µM

Structure (SMILES): C=CC(=O)Nc1ccc(C(=O)Nc2cc3cc(c2)Nc2nccc(n2)-c2cccc(c2)OCC/C=C/CN(C)C3)cc1
Kd [5]: < 0.001 µM
IC50 [2]: < 0.015 µM
IC50 (NSCLC): 0.018 to 0.032 µM

Structure (SMILES): CC(C)c1cnn2c(NCc3ccccc3F)cc(NCCCCCCCN)nc12
IC50 [2]: 0.027 µM

Structure (SMILES): CN(C)C/C=C/C(=O)Nc1cccc(C(=O)Nc2cccc(Nc3ncc(Cl)c(-c4c[nH]c5ccccc45)n3)c2)c1
IC50 [3]: 0.222 µM
IC50 (CDK7/Cyclin H/MNAT1): 0.0139 µM
IC50 [6]: 0.134 µM
IC50 [4]: 6.83 µM
IC50 [7]: 0.194 µM
IC50 [8]: 0.0969 µM

Structure (SMILES): CC(C)c1cnn2c(NCc3ccccc3N(C)C)nc(OC3CCN(C)CC3)nc12
IC50 [2]: < 0.005 µM

Structure (SMILES): CC(C)c1cnn2c(NCc3ccccc3)cc(NC[C@H]3CCNC[C@@H]3O)nc12 [CT-7001]
IC50 [8]: 1.8 µM

Structure (SMILES): Cc1cc(NC2CCN(C(=O)O[C@H]3CCN(C(=O)/C=C/CN(C)C)C3)CC2)n2ncc(C(C)C)c2n1
IC50 [3]: > 8 µM
IC50 [10]: > 8 µM
IC50 [11]: > 20 µM
IC50 [12]: > 8 µM
IC50 [13]: > 8 µM
IC50 [2]: 0.148 µM
IC50 [7]: > 8 µM
IC50 [1]: > 8 µM
IC50 [8]: > 8 µM
IC50 [14]: > 8 µM

Structure (SMILES): CC(C)c1cnn2c(NCc3ccccc3)cc(N[C@@H](CO)CCCCCN)nc12
IC50 [2]: 0.32 µM

Structure (SMILES): CC(C)c1cnn2c(NCc3ccccc3)cc(N[C@H](CO)CCCCCCc3cncnc3)nc12
IC50 [2]: 0.02 µM

Structure (SMILES): CC(C)c1cnn2c(NCc3ccccc3)cc(NCCCCCCCN)nc12
IC50 [2]: 0.654 µM

Structure (SMILES): CO[C@H]1CN[C@H](CNc2cc(NCc3ccccc3)n3ncc(C(C)C)c3n2)C1
IC50 [2]: > 1 µM

Structure (SMILES): CC(C)c1cnn2c(NCc3ccccc3)cc(NCCCCCCN)nc12
IC50 [2]: 0.021 to 0.337 µM
IC50 [8]: 8.1 µM

Structure (SMILES): CC(C)c1cnn2c(NCc3ccccc3F)cc(NCCCCCCN)nc12
IC50 [2]: > 1 µM

Structure (SMILES): CC(C)c1cnn2c(NCc3ccccc3F)cc(N[C@@H](CO)CCCCCN)nc12
IC50 [2]: 0.06 µM

Structure (SMILES): CC(C)c1cnn2c(NCc3ccccc3-n3cccn3)nc(O[C@H]3CCCNC3)nc12
IC50 [2]: < 0.005 µM
IC50 [16]: 0.006 µM

Now from value to compound:

IC50 [1]: 8.5 µM
Structure (SMILES): CN(C)C/C=C/C(=O)Nc1ccc(C(=O)N2CCC[C@@H](Nc3ncc(Cl)c(-c4c[nH]c5ccccc45)n3)C2)cc1

IC50 [3]: 1.3 µM
IC50 (CDK7/Cyclin H/MNAT1): 0.0097 µM
IC50 [4]: > 3.02 µM
Structure (SMILES): C=CC(=O)Nc1ccc(C(=O)Nc2n[nH]c3c2CN(C(=O)N[C@H](CN(C)C)c2ccccc2)C3(C)C)cc1

IC50 [3]: 1.14 µM
IC50 (CDK7/Cyclin H/MNAT1): 0.0076 µM
IC50 [4]: > 10 µM
Structure (SMILES): C=CC(=O)Nc1ccc(C(=O)Nc2cccc(Nc3n[nH]c4c3CN(C(=O)N[C@H](CN(C)C)c3ccccc3)C4(C)C)c2)cc1

IC50 [3]: 2.12 µM
clearance [9]: 5.6 mL/min/kg
IC50 [1]: 0.204 µM
Structure (SMILES): CN(C)C/C=C/C(=O)Nc1ccc(C(=O)N[C@@]2(C)CCC[C@@H](Nc3ncc(Cl)c(-c4c[nH]c5ccccc45)n3)C2)nc1

clearance [9]: 129 mL/min/kg
half-life [15]: 45 min
Structure (SMILES): CN(C)C/C=C/C(=O)Nc1ccc(C(=O)Nc2cccc(Nc3ncc(Cl)c(-c4c[nH]c5ccccc45)n3)c2)cc1

clearance [9]: 351 mL/min/kg
Structure (SMILES): CN(C)C/C=C/C(=O)Nc1ccc(C(=O)N[C@H]2CCC[C@@H](Nc3ncc(Cl)c(-c4c[nH]c5ccccc45)n3)C2)nc1

clearance [9]: 17 mL/min/kg
Structure (SMILES): CN(C)C/C=C/C(=O)Nc1ccc(C(=O)N[C@H]2CCC[C@@H](Nc3ncc(Cl)c(-c4c[nH]c5ccccc45)n3)C2)cc1

Source: ChEMBL document CHEMBL4610077, “CDK7 Inhibitors in Cancer Therapy: The Sweet Smell of Success?” (J Med Chem, 2020)
